Where “and” joins values, the source holds several entries; their conditions need not be identical. Equal values may be shown once.
Tested on: 276233-004-R-J1-PDC complex spheroid viability
Experiment: Anticancer human tumor 276233-004-R-J1-PDC patient-derived colon adenocarcinoma cell line growth inhibition [GQUAD]
Conditions: for viability, T/C: stronger effect = lower value; active = viability on the fitted dose curve at most 10% of control; inactive = the rest
Description: DNA G-quadruplex Stabilizer Agents in Combinations in Complex Spheroids
A high-throughput screen of multi-cell type tumor spheroids was designed to identify active combinations of DNA G-quadruplex stabilizer agents and targeted small molecules. Complex spheroids include a stromal component modeled by human endothelial cells (HUVEC) and fibroblasts modeled by human mesenchymal stem cells (MSCs). The concentration ranges selected for each drug and investigational agent were based upon clinically achievable concentrations if the clinical Cmax of the agent was known.
Compounds. The drugs and investigational agents: pidnarulex (CX-5461; NSC782164), APTO-253 (NSC789042), BRACO-19 (NSC847499), peposertib (NSC802822), ceralasertib (NSC780249), elimusertib (NSC800525), camonsertib (NSC841442), AZD-1390 (NSC803789), olaparib (NSC753686), talazoparib (NSC767125), ART-558 (NSC835418), sotorasib (NSC818433), MRTX-1133 (NSC836407), SN-38 (NSC673596), topotecan (NSC609699), etoposide (NSC141540), doxorubicin (NSC123127), gemcitabine (NSC613327), 5-fluorouracil (NSC19893), paclitaxel (NSC125973), vemurafenib (NSC761431), panobinostat (NSC761190), R-306465 (JNJ-16241199; NSC773264), adavosertib (NSC754352), TP-3654 (NSC805149), carboplatin (NSC241240), KSQ-4279 (NSC840948), and staurosporine (NSC755774) were obtained from the National Cancer Institute (NCI) Developmental Therapeutics Program Chemical Repository (34). The FDA-approved anticancer drug set is available from the NCI Developmental Therapeutics Program. […] The stock solutions were prepared in dimethyl sulfoxide (DMSO, Sigma-Aldrich, St. Louis, MO, cat. D2650) at 800-fold the tested concentration and stored at -70 degrees C prior to their use. All drugs and investigational agents were tested over a range starting from a high concentration at or near the clinical Cmax and decreasing in half-log increments. If the clinical Cmax for an agent had not been determined, the highest concentration tested was 10 microM.
2.3 Cell Culture. All cells were maintained in an incubator at 37 degrees C and 5% CO2 with 95% humidity. The PDC lines were cultured according to standard operating procedures established by the NCI PDMR. All PDCs were thawed and cultured in Matrigel-coated flasks prepared with a working solution of 1X Ham's F-12 nutrient mix, without supplementation (Invitrogen, cat. 11765054), 100 U/mL penicillin-streptomycin (Invitrogen, cat. 15140122), and 2.5% Matrigel (Corning Inc., cat. 354248) for the first three passages. The 857933-349-R-J2-PDC line was cultured in 6C/Colon 1B media, which includes advanced DMEM/F-12 (Thermo Fisher Scientific, cat. 12634028), 10 mM HEPES (Thermo Fisher Scientific, cat. 15630080), 1X GlutaMAX supplement (Thermo Fisher Scientific, cat. 35050061), 0.1 mg/mL primocin (InvivoGen, cat. ant-pm-2), 10% defined fetal bovine serum, heat inactivated (HyClone Laboratories Inc., cat. SH30070.03HI), 50% L-WRN conditioned media (ATCC, cat. CRL-3276), 1.25 mM N-Acetyl-L-cysteine (Sigma-Aldrich, cat. A9165), 10 mM nicotinamide (Sigma-Aldrich, cat. N0636), 1X B-27 supplement (Thermo Fisher Scientific, cat. 17504044), 1X N-2 supplement (Thermo Fisher Scientific, cat. 17502048), 10 microM Y-27632 dihydrochloride (Tocris Bioscience, cat. 1254), and 50 ng/mL human EGF recombinant protein (Thermo Fisher Scientific, cat. PHG0311). The 485176-168-R4-J1-PDC line was cultured in Panc media, which includes all 6C/Colon 1B media components plus 100 ng/mL human FGF-10 (Thermo Fisher Scientific, cat. 100-26), 500 nM SB-431542 (Selleckchem, cat. S1067), and gastrin (Tocris, cat. 3006).
[…]
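Also: spheroids exposed to drugs for seven days.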

CC(C)(O)C1CCC(Nc2ccc3ncc(-c4cccc(C(F)(F)F)c4)n3n2)CC1 (stereo unspecified)
2.38 µM and > 10 µM: IC50 (curve of compound)
inactive: viability, T/C (compound 0.0316 µM) 82.3% and 80.4% and 95.8% | viability, T/C (compound 0.1 µM) 73.1% and 79.5% and 84.1% | viability, T/C (compound 0.316 µM) 72.7% and 86.8% and 87.8% | viability, T/C (compound 1 µM) 62.9% and 60.6% and 73.3% | viability, T/C (compound 3.16 µM) 43.8% and 49.5% and 61% | viability, T/C (compound 10 µM) 45.6% and 63.7% and 54.7%

Nc1ccn(C2OC(CO)C(O)C2(F)F)c(=O)n1 (stereo unspecified)
inactive: viability, T/C (compound 0.0316 µM) 86.2% and 88.9% and 100% | viability, T/C (compound 0.1 µM) 76.2% and 97% and 92.5% | viability, T/C (compound 0.316 µM) 76.6% and 97.1% and 85.7% | viability, T/C (compound 1 µM) 69% and 83.3% and 72.7% | viability, T/C (compound 3.16 µM) 83.3% and 79% and 97.7% | viability, T/C (compound 10 µM) 71.6% and 68.4% and 75.5%
> 10 µM: IC50 (curve of compound)

CC1COCCN1c1cc(-c2ccnn2C)c2ccnc(-c3ccn[nH]3)c2n1 (stereo unspecified) + Cc1[nH]c2ccc(F)cc2c1-c1nc2c3cccnc3c3ncccc3c2[nH]1
inactive: viability, T/C (second compound 0.0316 µM, first compound 0.0316 µM) 84.6% | viability, T/C (second compound 0.0316 µM, first compound 0.1 µM) 69.4% | viability, T/C (second compound 0.0316 µM, first compound 0.316 µM) 87% | viability, T/C (second compound 0.0316 µM, first compound 1 µM) 70.5% | viability, T/C (second compound 0.0316 µM, first compound 3.16 µM) 57.9% | viability, T/C (second compound 0.0316 µM, first compound 10 µM) 56.3% | viability, T/C (second compound 0.1 µM, first compound 0.0316 µM) 76.1% | viability, T/C (second compound 0.1 µM, first compound 0.1 µM) 68% | viability, T/C (second compound 0.1 µM, first compound 0.316 µM) 68.9% | viability, T/C (second compound 0.1 µM, first compound 1 µM) 60% | viability, T/C (second compound 0.1 µM, first compound 3.16 µM) 68.1% | viability, T/C (second compound 0.1 µM, first compound 10 µM) 55.3% | viability, T/C (second compound 0.316 µM, first compound 0.0316 µM) 90.5% | viability, T/C (second compound 0.316 µM, first compound 0.1 µM) 87.7% | viability, T/C (second compound 0.316 µM, first compound 0.316 µM) 71.2% | viability, T/C (second compound 0.316 µM, first compound 1 µM) 60.3% | viability, T/C (second compound 0.316 µM, first compound 3.16 µM) 57% | viability, T/C (second compound 0.316 µM, first compound 10 µM) 59.7% | viability, T/C (second compound 1 µM, first compound 0.0316 µM) 89.3% | viability, T/C (second compound 1 µM, first compound 0.1 µM) 86.6% | viability, T/C (second compound 1 µM, first compound 0.316 µM) 65.4% | viability, T/C (second compound 1 µM, first compound 1 µM) 60.8% | viability, T/C (second compound 1 µM, first compound 3.16 µM) 57.6% | viability, T/C (second compound 1 µM, first compound 10 µM) 46.2% | viability, T/C (second compound 3.16 µM, first compound 0.0316 µM) 48.1% | viability, T/C (second compound 3.16 µM, first compound 0.1 µM) 48.5% | viability, T/C (second compound 3.16 µM, first compound 0.316 µM) 53.9% | viability, T/C (second compound 3.16 µM, first compound 1 µM) 45.1% | viability, T/C (second compound 3.16 µM, first compound 3.16 µM) 44.1% | viability, T/C (second compound 3.16 µM, first compound 10 µM) 32.5% | viability, T/C (second compound 10 µM, first compound 0.0316 µM) 42% | viability, T/C (second compound 10 µM, first compound 0.1 µM) 49.6% | viability, T/C (second compound 10 µM, first compound 0.316 µM) 40.8% | viability, T/C (second compound 10 µM, first compound 1 µM) 40.2% | viability, T/C (second compound 10 µM, first compound 3.16 µM) 37.8% | viability, T/C (second compound 10 µM, first compound 10 µM) 32.4%
< 0.0316 µM: IC50 (curve of first compound, second compound 3.16 µM) | IC50 (curve of first compound, second compound 10 µM)
> 10 µM: IC50 (curve of first compound, second compound 0.0316 µM) | IC50 (curve of first compound, second compound 0.1 µM) | IC50 (curve of first compound, second compound 0.316 µM)
7.21 µM: IC50 (curve of first compound, second compound 1 µM)

Reference: PubChem BioAssay AID2060496 (Molecular Pharmacology Branch, DTP, NCI, 2025)
